As usually defined, the IC50 is the concentration needed to halve the response being measured.

For one assay, the target named is PI3Kb (Homo sapiens, UniProt P42338). Briefly: PI3K beta Scintillation Proximity Assay. Format: biochemical. The settings on record: 40 μM ATP; n=2; read-out: absolute IC50. As for the experimental part: Use the PI3K beta Scintillation Proximity Assay (PI3K beta SPA) to determine the IC50 value against PI3Kb for a compound. This assay assesses the activity PI3K beta in the presence of compound inhibitors by measuring incorporation of γ-P33-ATP into phosphatidylinositol (4,5)bisphosphate (PIP2). Perform the kinase reactions in 40 μL reaction volumes in 96-well half-area flat bottom white with clear bottom polystyrene plates. Add PI3K beta to start the reaction. Final reaction conditions are 43.75 mM 2,2-bis(hydroxymethyl)-2,2′,2″-nitrilotriethanol (Bis-Tris) pH 7.0, 87.5 mM sodium chloride (NaCl), 1.76 mM polyethylene glycol octylphenyl ether (Triton™ X-100), 40 μM adenosine triphosphate (ATP), 1.0 mM magnesium chloride (MgCl2) and 1 μCi per well γ-P33-adenosine triphosphate (γ-P33-ATP), 6.0 nM PI3K beta human recombinant enzyme, 0.2 mM palmitoyl-oleoyl phosphatidylserine (POPS), 0.04 mM phosphatidylinositol (4,5)bisphosphate (PIP2), 4% DMSO and serial dilutions of compound (diluted 1:3 from 20,000 to 1 nM). […] Centrifuge plates for 30 min at 1000 revolutions per minute (RPM) and count radioactivity with a Wallac Microbeta Trilux normalized for P33. Derive the IC50 value for the compound by using percent inhibition data calculated using the reaction data relative to on-plate controls (active enzyme versus 62.5 millimolar EDTA-inhibited enzyme controls). […]
For orientation: In a scintillation proximity assay essentially only radioactivity close to the scintillant gives light.

The next assay deals with U87MG. The assay is described as follows: Cell proliferation assay (CellTiter-Glo), U87MG. The settings on record: Homo sapiens, U-87 MG, 96 h. Format: cell-based. As for the experimental part: (§1) Plate cells in a 96-well plate at 2000 cells/well in 100 μL of cell specific medium (for U87MG use DMEM, 10% FBS, 25 mM 4-(2-hydroxyethyl)-1-piperazineethanesulfonic acid (HEPES), 1.0 mM sodium pyruvate, and 0.1 mM Non Essential Amino Acids (ATCC Cat.#30-2002); for HT1080 use Eagle's MEM, 10% FBS (ATCC Cat.#30-2003); for H1975, A2780, SJSA-1 and 786-O use RPMI 1640, 10% FBS (ATCC Cat.#30-2001); for A204 use McCoy's 5A, 10% FBS (ATCC Cat.#30-2007) except in column 1 use medium only as the blank control. Incubate the plates overnight at 37° C. and 5% CO2. On the next day, prepare compound stocks at 1 mM in DMSO and serially dilute in DMSO in a 96-well round bottom polypropylene plate. Assay compounds at 10 concentrations in duplicate, 4 compounds per plate.
(§2) Transfer 4 μL of the DMSO serial dilutions to a 96 well plate and add 196 μL of culture medium to create a 10× stock for dosing. Gently transfer 11 μL of each dosing stock to the corresponding well of the cell plate resulting in a 0.2% DMSO concentration and a 111 μL final volume. […]
(§3) Prepared the CellTiter-Glo reagent (Promega, Cat: G7571) and add 100 µL to each well after the incubation is complete, homogenize the cells by mixing on an orbital shaker for 2 min and then incubate at RT for 10 min to allow the luminescent signal to stabilize. Record the luminescent raw data with a Wallac Victor V plate reader. […]

A further assay deals with A204. Briefly: Cell proliferation assay (CellTiter-Glo), A204. Type of assay: cell-based. The following applies: Homo sapiens, A204, 72 h. How it is done:
as §1, §2, §3

For assay [1], the system named is CXF 1729 human tumor xenograft cells. Briefly: Oncotest tumor clonogenic assay, CXF 1729. Format: cell-based. The settings on record: colony formation, Colon CXF 1729, adeno carcinoma, wd, read-out: Absolute IC50.
Assay [2] deals with CXF 676 human tumor xenograft cells. The assay is described as follows: Oncotest tumor clonogenic assay, CXF 676. The following applies: colony formation, Colon CXF 676, adeno carcinoma, md, read-out: Absolute IC50. Format: cell-based.
Assay [3] concerns CXF 975 human tumor xenograft cells. Briefly: Oncotest tumor clonogenic assay, CXF 975. The settings on record: colony formation, Colon CXF 975, adeno carcinoma, md, read-out: Absolute IC50. Type of assay: cell-based.
For assay [4], the system named is LXFL 529 human tumor xenograft cells. Briefly: Oncotest tumor clonogenic assay, LXFL 529. Format: cell-based. The settings on record: colony formation, NSCLC LXFL 529, large cell lung carcinoma, pd, read-out: Absolute IC50.
The test system of assay [5] is MAXF 401 human tumor xenograft cells. Briefly: Oncotest tumor clonogenic assay, MAXF 401. Type of assay: cell-based. The following applies: MAXF401, colony formation, Mammary MAXF 401, pap. adeno carcinoma, wd, read-out: Absolute IC50.
Assay [6] deals with MEXF 276 human tumor xenograft cells. The assay is described as follows: Oncotest tumor clonogenic assay, MEXF 276. Format: cell-based. The settings on record: colony formation, Melanoma MEXF 276, amelanotic melanoma, md, read-out: Absolute IC50.
Assay [7] relates to PAXF 546 human tumor xenograft cells. The assay is described as follows: Oncotest tumor clonogenic assay, PAXF 546. Format: cell-based. The following applies: PAXF546, colony formation, Pancreas PAXF 546, inf., mucous squamous cell carcinoma, read-out: Absolute IC50.
Assay [8] concerns SXF 1301 human tumor xenograft cells. Briefly: Oncotest tumor clonogenic assay, SXF 1301. Format: cell-based. The following applies: colony formation, Sarcoma SXF 1301, malignant rhabdomyosarcoma, ud, read-out: Absolute IC50.

Chain of PI3Kb (P42338 whole entry): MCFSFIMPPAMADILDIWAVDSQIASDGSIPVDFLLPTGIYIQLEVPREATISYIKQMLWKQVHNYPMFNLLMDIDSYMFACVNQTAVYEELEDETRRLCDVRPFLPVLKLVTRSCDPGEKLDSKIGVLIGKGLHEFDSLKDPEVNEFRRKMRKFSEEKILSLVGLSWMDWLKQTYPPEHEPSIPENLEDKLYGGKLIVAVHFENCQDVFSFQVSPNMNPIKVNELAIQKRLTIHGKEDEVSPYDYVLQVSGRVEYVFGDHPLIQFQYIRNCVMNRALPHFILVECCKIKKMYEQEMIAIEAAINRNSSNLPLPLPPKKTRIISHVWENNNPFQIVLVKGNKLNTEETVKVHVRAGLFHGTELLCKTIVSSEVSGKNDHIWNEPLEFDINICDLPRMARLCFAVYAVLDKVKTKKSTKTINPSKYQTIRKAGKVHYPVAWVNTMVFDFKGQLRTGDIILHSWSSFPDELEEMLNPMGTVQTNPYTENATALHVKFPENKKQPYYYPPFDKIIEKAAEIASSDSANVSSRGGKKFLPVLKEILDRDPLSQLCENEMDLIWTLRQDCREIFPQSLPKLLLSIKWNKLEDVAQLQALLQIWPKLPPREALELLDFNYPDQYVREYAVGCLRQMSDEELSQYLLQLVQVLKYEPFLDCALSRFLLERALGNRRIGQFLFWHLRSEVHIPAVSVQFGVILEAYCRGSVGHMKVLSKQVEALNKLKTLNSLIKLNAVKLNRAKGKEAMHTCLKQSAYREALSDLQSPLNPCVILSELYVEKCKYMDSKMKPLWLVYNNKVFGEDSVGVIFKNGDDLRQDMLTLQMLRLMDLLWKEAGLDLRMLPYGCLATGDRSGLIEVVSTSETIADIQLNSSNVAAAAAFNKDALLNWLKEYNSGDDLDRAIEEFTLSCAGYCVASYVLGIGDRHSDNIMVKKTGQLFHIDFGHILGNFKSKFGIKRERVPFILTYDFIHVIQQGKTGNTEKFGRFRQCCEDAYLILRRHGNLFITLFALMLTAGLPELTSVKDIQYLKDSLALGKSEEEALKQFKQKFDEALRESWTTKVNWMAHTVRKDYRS
Chain of PI3Kb (P27986 whole entry partner): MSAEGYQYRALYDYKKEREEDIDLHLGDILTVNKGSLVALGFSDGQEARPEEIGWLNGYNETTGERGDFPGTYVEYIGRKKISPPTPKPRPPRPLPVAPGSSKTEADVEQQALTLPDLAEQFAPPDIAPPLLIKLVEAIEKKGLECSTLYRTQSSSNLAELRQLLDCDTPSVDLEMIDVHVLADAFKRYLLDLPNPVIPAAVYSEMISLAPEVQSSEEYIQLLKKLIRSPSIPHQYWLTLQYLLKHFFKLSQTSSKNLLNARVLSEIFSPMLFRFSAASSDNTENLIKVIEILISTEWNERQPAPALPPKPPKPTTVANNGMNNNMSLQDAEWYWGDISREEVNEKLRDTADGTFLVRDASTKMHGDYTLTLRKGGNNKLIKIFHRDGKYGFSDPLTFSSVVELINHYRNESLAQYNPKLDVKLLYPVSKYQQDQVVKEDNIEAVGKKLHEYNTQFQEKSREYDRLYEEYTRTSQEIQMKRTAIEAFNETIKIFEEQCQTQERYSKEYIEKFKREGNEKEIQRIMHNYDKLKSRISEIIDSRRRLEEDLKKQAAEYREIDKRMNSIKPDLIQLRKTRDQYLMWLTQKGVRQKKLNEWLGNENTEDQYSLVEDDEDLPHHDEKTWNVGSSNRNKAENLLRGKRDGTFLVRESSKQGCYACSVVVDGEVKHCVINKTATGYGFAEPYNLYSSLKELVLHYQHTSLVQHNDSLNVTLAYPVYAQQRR

Regarding `CO[C@@H](C)Cn1c(=O)n(C)c2cnc3ccc(-c4cncc(C(C)(C)O)c4)cc3c21` [Example 1, 8-[5-(1-Hydroxy-1-methylethyl)pyridin-3-yl]-1-[(2S)-2-methoxypropyl]-3-methyl-1,3-dihydro-2H-imidazo[4,5-c]quinolin-2-one], the half-inhibitory concentration (IC50) on PI3Kb amounted to 77.6 nM; in the assay with U87MG it was 74 nM; with A204 it was 97 nM; in [1], 176 nM; in assay [2] it was 350 nM; in [3], 142 nM. The IC50 in assay [4] is 128 nM; in [5] it was 150 nM; in [6], 157 nM; in assay [7], 105 nM; in [8], over 200 nM.

These data come from patent US8658668B2, “PI3 kinase/mTOR dual inhibitor” (Eli Lilly and Company, priority 2011, dated 2014).
